Experimental data: US20240246937A1 (MERCK SHARP & DOHME LLC, priority 2021, published 2024)

Target: recombinant IL4I1 (Homo sapiens (Human), UniProt Q96RQ9)
Assay: IL4I1 Enzymatic Assay (Amplex Red/HRP coupled fluorescence detection of H2O2)
Type: biochemical
Details: 240 min; recombinant IL4I1, four-hour pre-incubation with compound
Summary of the method: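 Ten-point, 1:3 compound titrations were fitted by four-parameter sigmoidal regression to give EC50. Resorufin fluorescence (544/590 nm) from Amplex Red/HRP-coupled H2O2 detection was read 120 min after adding 1 mM each aromatic amino acid to 1 nM IL4I1, following a 4 h compound pre-incubation in pH 7.0 Hepes buffer.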

Sequence of recombinant IL4I1 (Q96RQ9 22-567): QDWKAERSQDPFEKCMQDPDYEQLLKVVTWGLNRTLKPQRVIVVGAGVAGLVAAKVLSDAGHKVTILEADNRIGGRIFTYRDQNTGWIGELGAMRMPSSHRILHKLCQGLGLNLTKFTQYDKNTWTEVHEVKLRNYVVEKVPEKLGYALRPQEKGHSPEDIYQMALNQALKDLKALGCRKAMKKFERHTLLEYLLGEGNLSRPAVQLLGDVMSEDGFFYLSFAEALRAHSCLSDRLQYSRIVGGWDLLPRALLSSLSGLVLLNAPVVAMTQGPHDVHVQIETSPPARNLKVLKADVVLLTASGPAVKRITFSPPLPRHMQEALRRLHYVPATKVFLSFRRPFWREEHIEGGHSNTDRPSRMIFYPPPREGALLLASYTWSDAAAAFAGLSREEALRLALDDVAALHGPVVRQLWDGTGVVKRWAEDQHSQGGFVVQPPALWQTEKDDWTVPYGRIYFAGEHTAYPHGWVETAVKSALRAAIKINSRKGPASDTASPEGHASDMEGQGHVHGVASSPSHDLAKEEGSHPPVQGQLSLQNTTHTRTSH

Row | Compound | EC50 [nM]
1 | O=c1c(=O)n(C23CC(F)(C2)C3)ccn1Cc1ccc(-n2nccn2)cn1 [Example 217, 1-((5-(2H-1,2,3-triazol-2-yl)pyridin-2-yl)methyl)-4-(3-fluorobicyclo[1.1.1]pentan-1-yl)-1,4-dihydropyrazine-2,3-dione] | 42
2 | O=c1c(=O)n(C23CC(C2)C3)ccn1Cc1nnc(-c2cccc(F)c2)s1 [Example 144, 1-(bicyclo[1.1.1]pentan-1-yl)-4-((5-(3-fluorophenyl)-1,3,4-thiadiazol-2-yl)methyl)-1,4-dihydropyrazine-2,3-dione] | 2
3 | O=C1C(=O)N(C23CC(C2)C3)CCN1Cc1ccc(-n2nccn2)nn1 [Example 401, 1-((6-(2H-1,2,3-triazol-2-yl)pyridazin-3-yl)methyl)-4-(bicyclo[1.1.1]pentan-1-yl)piperazine-2,3-dione] | 48
4 | CC1(n2ccn(Cc3ccc(-n4nccn4)cn3)c(=O)c2=O)CC1 [Example 202, 1-((5-(2H-1,2,3-triazol-2-yl)pyridin-2-yl)methyl)-4-(1-methylcyclopropyl)-1,4-dihydropyrazine-2,3-dione] | 44
5 | O=C1C(=O)N(C2CCC2)CCN1Cc1cnc(-c2ccccc2)s1 [Example 70, 1-cyclobutyl-4-((2-phenylthiazol-5-yl)methyl)piperazine-2,3-dione] | 4
6 | O=c1c(=O)n(C23CC(C2)C3)ccn1Cc1ccc(-n2nccn2)nn1 [Example 403, 1-((6-(2H-1,2,3-triazol-2-yl)pyridazin-3-yl)methyl)-4-(bicyclo[1.1.1]pentan-1-yl)-1,4-dihydropyrazine-2,3-dione] | 17
7 | O=c1c(=O)n(C23CC(C2)C3)ccn1Cc1ccc(-c2ccccn2)nn1 [Example 93, 1-(bicyclo[1.1.1]pentan-1-yl)-4-((6-(pyridin-2-yl)pyridazin-3-yl)methyl)-1,4-dihydropyrazine-2,3-dione] | 31
8 | O=C1C(=O)N(C2CCCC2)CCN1Cc1ncc(-c2nccs2)cn1 [Example 361, 1-cyclopentyl-4-((5-(thiazol-2-yl)pyrimidin-2-yl)methyl)piperazine-2,3-dione] | 96
9 | O=C1C(=O)N(C2CCC2)CCN1Cc1cc(-c2ccccc2)on1 [Example 105, 1-cyclobutyl-4-((5-phenylisoxazol-3-yl)methyl)piperazine-2,3-dione] | 2
10 | O=C1C(=O)N(C2CC(O)C2)CCN1Cc1ccc(-c2ccccc2F)nn1 (stereo not shown) [Example 434, 1-((6-(2-fluorophenyl)pyridazin-3-yl)methyl)-4-(3-hydroxycyclobutyl)piperazine-2,3-dione] | 71
11 | O=c1c(=O)n(C23CC(C2)C3)ccn1Cc1cc(-c2ccccn2)on1 [Example 169, 1-(bicyclo[1.1.1]pentan-1-yl)-4-((5-(pyridin-2-yl)isoxazol-3-yl)methyl)-1,4-dihydropyrazine-2,3-dione] | 7
12 | O=C1C(=O)N(C2CCCC2)CCN1Cc1ccc(-c2cccnc2)nn1 [Example 37, 1-cyclopentyl-4-((6-(pyridin-3-yl)pyridazin-3-yl)methyl)piperazine-2,3-dione] | 18
13 | O=C1C(=O)N(C2CCC2)CCN1Cc1nnc(-c2ccccc2)s1 [Example 135, 1-cyclobutyl-4-((5-phenyl-1,3,4-thiadiazol-2-yl)methyl)piperazine-2,3-dione] | 6
14 | O=C1C(=O)N(C2CCCC2)CCN1Cc1cnc(-c2ccccc2)nc1 [Example 270, 1-cyclopentyl-4-((2-phenylpyrimidin-5-yl)methyl)piperazine-2,3-dione] | 24
15 | O=c1c(=O)n(C23CC(F)(C2)C3)ccn1Cc1cc(-c2cccnc2)no1 [Example 224, 1-(3-fluorobicyclo[1.1.1]pentan-1-yl)-4-((3-(pyridin-3-yl)isoxazol-5-yl)methyl)-1,4-dihydropyrazine-2,3-dione] | 101
16 | O=c1c(=O)n(C2CCCC2)ccn1Cc1ccc(-n2ccnn2)nn1 [Example 328, 1-((6-(1H-1,2,3-triazol-1-yl)pyridazin-3-yl)methyl)-4-cyclopentyl-1,4-dihydropyrazine-2,3-dione] | 7
